This note sets out measurements from patent US20150283127A1, “SAQUINAVIR-NO FOR IMMUNOMODULATION” (ONCONOX APS, priority 2012, published 2015).

Marks after values point to notes of the source that are not given here. A value given as a limit tells only on which side of the number the result lay.

The subject of assay [1] is murine SPC. Kind of assay: Apoptosis in murine SPC, Annexin V-FITC staining and cytofluorimetry. It is filed as cell-based, mouse. The text has this:
(§1) Experimental animals (C57BL/6 mice, BALB/c mice and Dark Agouti rats) were obtained from the Animal House Facility of the Institute for Biological Research “Sinisa Stanković”, Belgrade, Serbia. Spleen cells (SPC) were isolated from murine spleens and lymph node cells (LNC) were obtained from rat cervical lymph nodes of untreated animals. Draining lymph node cells (DLNC) were obtained from popliteal lymph nodes 8-10 days after immunization of rats with myelin basic protein (guinea pig MBP, kind gift from professor Alexander Fluegel, University of Goettingen, Germany) and complete Freund's adjuvant (CFA, Difco, Detroit, Mich.). The organs were mechanically disrupted, passed through 40-μm nylon mesh filter and the resulting suspension was collected by centrifugation. Red blood cells from single cell suspensions obtained from spleens were lysed using RBC Lysis Buffer (eBioscience, San Diego, Calif.). CD4+ cells were purified from SPC using biotin conjugated antibody specific for CD4 (eBioscience) and IMag SAv particles plus (BD Biosciences, San Diego, Calif.). Obtained purity of CD4 population was more than 97% as determined by flow cytometry. SPC and LNC were seeded at 5×10^6/ml/well, DLNC at 2.5×10^6/ml/well and CD4+ cells at 1×10^6/ml/well of 24-well plates. Cells infiltrating spinal cords (SC) were obtained from SC of rats immunized with MBP+CFA at the time when rats suffered from severe clinical signs of experimental autoimmune encephalomyelitis (EAE). Rats were perfused with sterile PBS, SC were homogenized, adjusted to 30% Percoll (Sigma-Aldrich) and overlaid on 70% Percoll gradient. Following centrifugation at 870 g for 50 min the SC cells (SCC) were recovered from the […] Percoll interface and washed in RPMI-1640 medium. SCC were seeded at 0.5×106/200 μl/well of 96-well plates. SPC and LNC were stimulated with 2.5 μg/ml concanavalin A (ConA, Sigma-Aldrich), DLNC with MBP (10 ng/ml), CD4+ cells with anti-CD3 and anti-CD28 antibody (1 μg/ml each, both from eBioscience) and SCC were left untreated.
The cells positive for Annexin V-FITC were considered apoptotic. The stained cells were acquired by a FACSCalibur cytometer (BD Biosciences) and analyzed using CellQuest Software (BD Biosciences).

The next assay concerns murine CD4+ cells. In words: Cytokine generation (ELISA) in murine CD4+ cells stimulated with anti-CD3 and anti-CD28. It is filed as cell-based, mouse. The conditions noted are these: for Influence on IL-10 / TNF release: CD4+ cells.
From the text: as §1
(§2) Cytokine concentration in cell culture supernatants was determined by sandwich ELISA using MaxiSorp plates (Nunc, Rochild, Denmark) and anti-cytokine paired antibodies according to the manufacturer's instructions. Samples were analyzed in duplicate for murine/rat IL-17, murine IL-10, murine TNF, murine IL-4 (eBioscience), murine IFN-γ, rat IFN-γ, rat IL-4 (R&D, Minneapolis, Minn.), rat IL-10 and rat TNF (BD Biosciences). The results were calculated using standard curves made on the basis of known concentrations of the appropriate recombinant cytokines.
CD4+ cells were purified from C57BL/6 SPC and stimulated with anti-CD3 and anti-CD28 antibodies in the presence of various concentrations of Saq-NO for 24 hours. The influence of Saq-NO on cytokine generation was compared to its influence on CD4+ cell viability and to the influence of Saq on the same parameters. […] Thus, Saq-NO directly affects T cell cytokine production.

For assay [2], the system named is murine SPC. In words: Cytokine generation (ELISA) in ConA-stimulated murine SPC. The note with it: for Effects on cytokines at low concentrations: unfractionated spleen cells and/or purified murine CD4 T cells, concentrations of 2.5 and 5 mM. It is filed as cell-based, mouse.
From the text: as §1, §2
In order to investigate the potential of Saq-NO to modulate cytokine production in immune cells, rat LNC were stimulated with ConA in the presence of various concentrations of Saq-NO for 24 hours and the levels of IFN-g, IL-4, IL-17, IL-10 and TNF were determined in cell-free culture supernatants. […] Effects of Saq-NO on the cytokine generation were examined in murine SPC, as well. Here, Saq-NO was applied in parallel with Saq and their influence on the cytokine generation and cell viability was compared. Further, two strains of mice were used, i.e. BALB/c and C57BL/6 mice which are prototypical Th2 and Th1 mice, respectively (Lohoff et al., 1998). […] Moreover, the influence of Saq-NO on the cytokines was evident with concentrations of the agent that had no effect on SPC viability (FIG. 2).

The test system of a further assay is MOG-induced EAE. Kind of assay: MOG-induced EAE in C57Bl6 mice. The format is in vivo. The note with it: for Clinical course of the disease: day 7 to 30; for Disease after interruption of the late prophylactic treatment: observed for further 11 days. The text has this: Seven to 8 weeks-old male C57Bl6 mice and 6 to 7 weeks-old female SJL mice (Harlan Laboratories srl, San Pietro al Natisone, Udine, Italy) were used in the experiments. They were kept under standard laboratory conditions (non specific pathogen free) with free access to food (Harlan Global Diet 2018) and water and were allowed to adapt at least one week to their environment before commencing the study.
MOG35-55 was synthesized by Genemed synthesis (San Francisco Calif.). The mice were immunized with 200 μg MOG emulsified in CFA with 1 mg of Mycobacterium tuberculosis H37RA (Difco, Detroit, Mich., USA) to make a 1:1 emulsion. Each mouse received subcutaneous injections of 200 μl emulsion divided among two sites draining into the axillary lymph nodes. Pertussis toxin (Calbiochem, Nottingham, UK) was used as a coadjuvant and was administered i.p. at the dose of 200 ng/mouse on day 0 and 2 post immunization. The mice were observed every day by measuring their body weights and clinical signs of EAE until 30 days after immunization. These clinical grading were carried out by an observer unaware of the treatment: 0=no sign of disease; 0.5=partial tail paralysis; 1=tail paralysis; 1.5=tail paralysis+partial unilateral hindlimb paralysis; 2=tail paralysis+hindlimb weakness or partial hindlimb paralysis; 2.5=tail paralysis+partial hindlimb paralysis (lowered pelvi); 3=tail paralysis+complete hindlimb paralysis; 3.5=tail paralysis+complete hindlimb paralysis+incontinence; 4=tail paralysis+hindlimb paralysis+weakness or partial paralysis of forelimbs; 5=moribund or dead.
The study involved 4 groups of 10 animals each. All the groups were immunized with the MOG35-55 peptide in CFA and pertuxis toxin, according to the immunization procedure described above and assigned to the following treatments:
The late prophylactic treatment started on day 7 immunization and continued until day 30; the therapeutic regime started at the onset of the disease and continued for 23 consecutive days.

The mark [3] stands for this setting: anti-CD3 and anti-CD28, 24 hours.
Setting [4] is: late prophylactic treatment, 10 mg/Kg i.p. daily.

For the molecule `CC(C)(C)NC(=O)[C@@H]1C[C@@H]2CCCC[C@@H]2CN1C[C@@H](O)[C@H](Cc1ccccc1)NC(=O)[C@H](CC(N)=O)NC(=O)c1ccc2ccccc2n1` [Saq, (2S)—N-[(2S,3R)-4-[(3S)-3-(tert-butylcarbamoyl)-decahydroisoquinolin-2-iy]-3-hydroxy-1-phenylbutan-2-il]-2-(quinolin-2-ylformamido)butanediamide, reference compound], the “% of AnnV+ cells” value is recorded as 27.5 +/− 4.8% in the assay with murine SPC [1] (C 5 μg/ml), 31.6 +/− 6.4% in the assay with murine SPC [1] (C 10 μg/ml) and 49.8 +/− 4.8* % in the assay with murine SPC [1] (C 20 μg/ml). For the same molecule, in the assay with murine CD4+ cells (setting [3]), the “Influence on IL-10” value was “similarly potent”. For the same molecule, the TNF release entry in the assay with murine CD4+ cells (setting [3]) is listed as “did not modulate”. The “IL-17 secretion from purified CD4+ T cells at low concentrations” value with murine CD4+ cells (concentrations of 2.5 and 5 mM) is reported as “inhibitory effect”. In the assay on murine SPC [2], the “Effects on cytokines at low concentrations” value is “No effects”. The “Clinical course of the disease” value in the assay on MOG-induced EAE (setting [4]) was “slightly reduced”. Also, the “Disease after interruption of the late prophylactic treatment” value in the assay on MOG-induced EAE is on record as “maintained the same severity of the disease”.

For the molecule `CC(C)(C)NC(=O)C1C[C@@H]2CCCC[C@@H]2CN1CC(O[N+](=O)[O-])[C@H](Cc1ccccc1)NC(=O)C(CC(N)=O)NC(=O)c1ccc2ccccc2n1` (stereo partly drawn) [Saq-NO, nitric ester of Saquinavir], the “% of AnnV+ cells” value is 30.2 +/− 7.5% with murine SPC [1] (C 5 μg/ml), 38.4 +/− 4.8% with murine SPC [1] (C 10 μg/ml) and 44.5 +/− 11.5% with murine SPC [1] (C 20 μg/ml). The “Generation of IFN-g, IL-4 and IL-17” value with murine CD4+ cells (CD4+ cells of C57BL/6 SPC, anti-CD3 and anti-CD28, 24 hours) was “more effectively than Saq”. In the assay with murine CD4+ cells (setting [3]), the “Influence on IL-10” value is reported as “similarly potent”. Moreover, the TNF release entry in the assay with murine CD4+ cells (setting [3]) is recorded as “did not modulate”. Also, in the assay with murine SPC [2] (murine SPC), the “Production of IFN-g, IL-4, IL-17, TNF” value was “inhibited”. Further, in the assay on murine SPC [2] (murine SPC), the “Production of IL-10” value is on record as “stimulated”. The “Effect on the release of IFN-g, IL-4, IL-17, IL-10 and TNF, compared with Saq” value in the assay on murine SPC [2] (murine SPC of BALB/c and C57BL/6 mice, ConA) is “more profound effect”. The “Effects on cytokines at low concentrations” value with murine SPC [2] is “already observable”. Besides, the “Cumulative score and duration of the disease compared to vehicle treated mice” value in the assay with MOG-induced EAE (full therapeutic regime, 10 mg/Kg i.p. daily from onset, 23 days) is recorded as “significant reduction”; with MOG-induced EAE (setting [4]) it was “significantly lower”. In addition, in the assay with MOG-induced EAE (late prophylactic treatment interrupted), the “Time after treatment interruption to reach the clinical score of vehicle treated mice” value is on record as at most 9 days. In the assay with MOG-induced EAE (setting [4]), the “Clinical course of the disease” value was “ameliorated”. In the assay with MOG-induced EAE, the “Disease after interruption of the late prophylactic treatment” value is on record as “developed a strong disease”.
